Results from US20210238598A1, “COMPOSITIONS, SYSTEMS, AND METHODS FOR BASE DIVERSIFICATION” (Pairwise Plants Services, Inc., priority 2020, published 2021).

Biological target: T1, APE1 (Homo sapiens, UniProt P27695)
T1 construct: endogenous in cells; host or cells: HEK293T (ATCC CRL-3216)
Test: APE1 inhibitor effect on indels and base diversification by AID or pmCDA1 fused to Cas9 nickase (D10A), HTS
Format: cell-based
Details: HEK293T cells, 100 μM and 200 μM, 3d, FIG. 6
Method: APE1 was inhibited by using CRT0044876 (Scheme 1), which is a potent and well-known APE1 inhibitor.
To ascertain whether this compound improves base diversification profile, HEK293T cells were treated with AID or pmCDA1 fused to Cas9 nickase (D10A) in the presence of CRT0044876. After 3d, the cells were harvested and analyzed through high-throughput sequencing (HTS).

T1 sequence (P27695 whole entry): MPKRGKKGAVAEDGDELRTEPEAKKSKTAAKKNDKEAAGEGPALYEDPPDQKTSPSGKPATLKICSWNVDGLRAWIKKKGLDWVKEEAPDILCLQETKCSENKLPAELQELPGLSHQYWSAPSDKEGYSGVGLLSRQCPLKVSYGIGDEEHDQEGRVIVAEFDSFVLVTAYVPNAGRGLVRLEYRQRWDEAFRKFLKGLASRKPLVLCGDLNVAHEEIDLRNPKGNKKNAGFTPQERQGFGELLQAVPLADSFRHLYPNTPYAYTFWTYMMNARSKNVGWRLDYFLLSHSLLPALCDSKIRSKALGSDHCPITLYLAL

For O=C(O)c1cc2cccc([N+](=O)[O-])c2[nH]1 [CRT0044876], the base diversification rate was “some decrease” and the “amount of indel generated” value (multiple target sites) was “significant decrease”.
